Data: US20160279190A1, “MODULATION OF AXON DEGENERATION” (GENENTECH, INC., priority 2008, published 2016)
Entries after “also recorded” stand apart in the source; their conditions may differ.

Tests used:
[1] = system: DRGs; test: G-protein/GPCR inhibitors in NGF withdrawal-induced degeneration in DRGs; assay type: cell-based
Method: The assays described herein identified several inhibitors of G-proteins and G-protein coupled receptors (GPCRs) that decrease degeneration in neurons. Experiments were performed in DRGs to verify the role of G-proteins and GPCRs in degeneration pathways. The experimental protocols used in these experiments are the same as those described in Example 14. Pertussis toxin and SCH 202676 were purchased from Tocris Bioscience.

[2] = system: ERK; test: ERK activation by EGFR ligand, Western blot; assay type: cell-based, mouse; conditions: 100 μg/mL EGF, 30 minutes to 1 hour
Method: (§1) Dorsal Root Ganglia (DRG) immunoblots were prepared as follows. Primary cells used in the experiments were Charles River CD-1 E13 Dorsal Root Ganglia (DRG). The cells were maintained in N3/F12 (+25 ng/ml NGF) medium (Ham's F12 (23 ml), N3 supplement (1 ml), glucose (1 ml of 1 M glucose stock), 25 ng/ml Nerve Growth Factor 2.5 S, mouse (Roche 11362348001) in Ham's F12 (stock: 50 μg/ml −80° C.), which was filter-sterilized prior to use). The experiments also employed Triton lysis buffer (20 mM Tris pH 7.5, 150 mM NaCl, 0.1% Triton-X100, 100× Phosphatase inhibitor cocktail I (added fresh), 100× Phosphatase inhibitor cocktail II (added fresh), 1 tablet/10 ml Protease inhibitor tablet (added fresh)).
(§2) DRG explants were prepared on Day 0. Embryo dissections were carried out in L15 medium (dissection tools were soaked in 70% isopropanol, and dishes were set up on ice: 10 cm dishes (4 embryos per dish) and one 6 cm dish for spinal cords). E13.5 spinal cords were extracted into DMEM+10% FBS. […]
Immunoblotting was carried out by aspiration of media with a pipette tip, washing twice with ice-cold sterile PBS, and removal of all PBS using an aspirator with a pipette tip or kimwipes. […] Quantification was carried out by choosing a background method and standard bands that minimize negative/counter-intuitive values: i.e., top/bottom, right/left, user-defined (user-defined). […]

[3] = system: dorsal root ganglion neurons; test: EGFR ligand added to neurons maintained in NGF: axon degeneration; assay type: cell-based, mouse; conditions: 100 μg/mL EGF
Method: as §1
as §2, with “FBS. 5×20 DRGs were detached from the spinal cord. 8 well slides were filled with 250 μl N3/F12 (25 ng/ml NGF)+7 μM cytosine arabinoside.” for “FBS.”
The goal of these experiments was to see if activation of EGFR by EGF would be sufficient to drive degeneration. […] To ensure that EGF is capable of activating EGFR/ErbBs in the neuronal cultures used in these assays, ERK activation was assessed (ERK is a downstream target of EGFR).

[4] = system: cerebellar granule neurons (CGNs); test: serum deprivation/KCl reduction-induced degeneration; assay type: cell-based, mouse; conditions: 5 mM KCl, 24 hours
Method: Kinase inhibitors (inhibitors of GSK3, JNK, EGFR, p38, and CaMKK) were tested for their capacity to protect cultured cerebellar granule neurons (CGNs) following serum deprivation/KCl reduction. Briefly, CGNs isolated from P7 mouse brain were cultured on PDL- and laminin-coated 96-well tissue culture dishes in medium containing serum and potassium (Basal Medium Eagles including 29 mM KCl and 10% FBS) at 37° C. After 24 hours in culture, cells were switched to “deprivation” medium (Basal Medium Eagles including 5 mM KCl), alone or in combination with various small molecule inhibitors as shown in Table 8. After a further 24 hours in culture, the neurons were fixed with 4% paraformaldehyde and stained with a neuronal marker (anti-class III β-Tubulin, Covance). Image acquisition was performed using the ImageXpress automated imaging system (Molecular Devices).

[5] = system: DRGs; test: Campenot chamber local axon degeneration, anti-NGF in axon compartment; assay type: cell-based, mouse; conditions: for formation of varicosities in locally NGF-deprived axons: axon inhibitors added to axon compartment: 10 μM AG555, 30 μM SB239; for Axon Compartment (axon protected when inhibitor is in axon compartment) / Cell Body Compartment (axon protected when inhibitor is in cell body compartment): anti-NGF in axon compartment, 28 hours
Method: Teflon dividers (Tyler Research) were cleaned by washing in water and wiping them clean of any residual grease. Dividers were then soaked in Nochromix (Godax Laboratories)/sulfuric acid overnight, rinsed five times in distilled and autoclaved water (SQ water), boiled for 30 minutes, and then air-dried before use.
Mouse laminin (5 μg/ml in sterile filtered water; Invitrogen) was added to PDL coated 35 mm dishes (BD Biosciences) and they were incubated for 1 hour at 37° C., followed by two rinses in SQ water. The dishes were vacuum-dried and then air-dried in a laminar flow hood for 15 minutes. Prepared dishes were then scored with a pin rake (Tyler Research). […] High vacuum grease (VWR) was added to each Teflon divider under a dissection scope. The laminin coated PDL dishes were inverted and dropped onto the Teflon divider, with additional pressure added by use of a toothpick in the non-track-containing regions. Dishes were incubated for 1 hour at 37° C. Five hundred microliters of NBM+MC (50 ng/ml NGF) solution was added to each of the side compartments, and a grease barrier was added in front of the center cell slot.
Free E13.5 spinal cords were dissected from mouse embryos and placed into NBM+MC (25 ng/ml NGF) solution. DRGs were detached from the spinal cord with a tungsten needle. An NBM+MC-lubricated P200 pipette was used to move DRGs into a 1.5 ml tube. DRGs were pelleted with a tabletop centrifuge for 30 seconds. The supernate was discarded and 0.05% Trypsin/EDTA (cold) was added. The pellet was resolubilized with a pipette and incubated at 37° C. for 15 minutes with constant agitation (650 RPM). The sample was again centrifuged and the supernate discarded. The pellet was resuspended in warm NBM+MC (50 ng/ml NGF) solution and triturated with a flamed glass pipette 20 times, followed by trituration with a fire-bored glass pipette another 20 times. The samples were again centrifuged and the resulting pellets were resuspended in 0.5 ml NBM+MC (50 ng/ml NGF) solution. The cells were diluted to a final concentration of 2.5×10^6 cells/ml. The cell suspensions were loaded into a 1 ml syringe with a 22 gauge needle. The center slot of the Campenot divider was filled using the syringe (to a volume of at least 50 μl). The Campenot chamber was incubated overnight at 37° C. 2.5 ml NGF+MC (50 ng/ml NGF) solution was added to the center compartment and the grease gate was removed. The outer medium (cell body compartment) was replaced after three days with 2.5 ml NBM+MC medium (with 25 ng/ml NGF). After five days in culture, one distal compartment was washed three times with warmed NBM+MC (no NGF) solution. After the third wash, 500 μl NBM+MC (no NGF) solution was added to the axon compartment in combination with either 0.5% DMSO or an inhibitor. The cell body compartment was replaced with 2.5 ml NBM+MC medium (with 25 ng/ml NGF) containing either 0.5% DMSO or inhibitor.
After 28 hours of anti-NGF antibody treatment, 8% PFA/30% sucrose solution (see above) was added directly to the culture medium at a 1:1 dilution and incubated for 30 minutes. The Teflon divider was removed after the first 15 minutes of addition. The system was washed once with 2.5 ml PBS prior to immunostaining. Neurons were blocked in 5% BSA/0.2% triton in PBS for 30 minutes. The primary antibody Tuj1 (Covance) was added to a final dilution of 1:1000 in PBS containing 2% BSA and incubated overnight at 4° C. The dish was washed once with PBS. […] The dish was washed twice with PBS, and a 22×22 mm coverslip (VWR) was added with 350 μl of fluoromount G (Electron Microscopy Sciences). The neurons were visualized by use of a fluorescence microscope.
As described above, E13.5 DRGs were isolated and grown for 5 days in a Campenot chamber.

[6] = system: protein tyrosine phosphorylation in 3T3-Her2 cells; conditions: published source (footnote c), read-out: Cellular IC50; cited from earlier work
[7] = system: heregulin induced tyrosine phosphorylation in MDA-MB-453 cells; conditions: published source (footnote b), read-out: Cellular IC50; cited from earlier work
[8] = system: dorsal spinal cord explants; test: dorsal spinal cord (DSC) explant degeneration; assay type: cell-based; conditions: 3.4 μM, 11.1 μM, 33.3 μM and 100 μM (FIG. 37)
Description: DSCs grow out axons over a period of days, but if they are not rescued with the addition of a survival factor, they will eventually degenerate.

[9] = inhibitor 30 μM, listed as SB239
[10] = inhibitor 30 μM, listed as SB239063

## Pertussis toxin
[1]; 0.01 μg/mL, 0.1 μg/mL or 1 μg/mL (FIG. 51)
  degeneration in neurons following NGF withdrawal: decreases degeneration in neurons following NGF withdrawal

## EGF: ErbB ligand (ErbB1) that activates EGFR (NSDSECPLSHDGYCLHDGVCMYIEALDKYACNCVVGYIGERCQYRDLKWWELR; Epidermal growth factor; UniProt P01133 971-1023, looked up)
[2]
  phosphorylation of ERK (ERK activity by Western blot): increased ERK activity; also recorded: induces phosphorylation of ERK
[3]
  induction of axon degeneration in neurons maintained in NGF: does not cause degeneration; also recorded: does not induce axon degeneration

## C=C/C=C(\C=C)CCCNC(=O)/C(C#N)=C/c1ccc(O)c(O)c1 [AG 555]
[4]; inhibitor 1 μM or 10 μM
  protection of cerebellar granule neurons from serum deprivation/KCl reduction: protect cerebellar granule neurons from serum deprivation/KCl reduction
[5]
  formation of varicosities in locally NGF-deprived axons: fewer varicosities
[5]; inhibitor 10 μM
  Axon Compartment (axon protected when inhibitor is in axon compartment): did not degenerate; also recorded: protected from local degeneration; also recorded: Yes (4)
  Cell Body Compartment (axon protected when inhibitor is in cell body compartment): failed to prevent degeneration; also recorded: No (4)

## C=CC(=O)Nc1ccc2ncnc(Nc3cccc(Br)c3)c2c1 [PD168393]
[6]
  IC50: 100 µM
[7]
  IC50: 5 nM
[5]; inhibitor 5 μM
  Axon Compartment (axon protected when inhibitor is in axon compartment): Yes (1)
  Cell Body Compartment (axon protected when inhibitor is in cell body compartment): No (1)

## CN=c1nc(-c2ccccc2)n(-c2ccccc2)s1 [SCH 202676]
[1]; 0.1 μM, 1 μM, 10 μM or 100 μM (FIGS. 49 and 50)
  NGF withdrawal-induced degeneration in DRGs: decreases NGF withdrawal-induced degeneration in DRGs

## O=C1c2ccccc2-c2n[nH]c3cccc1c23 [SP600125]
[4]; inhibitor 5 μM
  protection of cerebellar granule neurons from serum deprivation/KCl reduction: protect cerebellar granule neurons from serum deprivation/KCl reduction
[5]; inhibitor 5 μM
  Axon Compartment (axon protected when inhibitor is in axon compartment): Yes (1)
  Cell Body Compartment (axon protected when inhibitor is in cell body compartment): Yes (1)
[5]; inhibitor 10 μM
  Axon Compartment (axon protected when inhibitor is in axon compartment): Yes (1)
  Cell Body Compartment (axon protected when inhibitor is in cell body compartment): Yes (1)

## COc1nccc(-c2c(-c3ccc(F)cc3)ncn2C2CCC(O)CC2)n1 (centres unmarked) [SB 239063]
[4]; inhibitor 5 μM
  protection of cerebellar granule neurons from serum deprivation/KCl reduction: protect cerebellar granule neurons from serum deprivation/KCl reduction
[5]
  formation of varicosities in locally NGF-deprived axons: fewer varicosities
[5]; inhibitor 5 μM
  Axon Compartment (axon protected when inhibitor is in axon compartment): Yes (1)
  Cell Body Compartment (axon protected when inhibitor is in cell body compartment): No (1)
[5]; [9]
  Axon Compartment (axon protected when inhibitor is in axon compartment): did not degenerate; also recorded: protected from local degeneration
  Cell Body Compartment (axon protected when inhibitor is in cell body compartment): failed to prevent degeneration
[5]; [10]
  Axon Compartment (axon protected when inhibitor is in axon compartment): Yes (3)
  Cell Body Compartment (axon protected when inhibitor is in cell body compartment): No (3)

## C#Cc1cccc(Nc2ncnc3cc(OCCOC)c(OCCOC)cc23)c1 [Tarceva, N-(3-ethynylphenyl)-6,7-bis(2-methoxyethoxy)quinazolin-4-amine]
[8]
  degeneration in dorsal spinal cord explants: delay this degeneration program; also recorded: blocks degeneration in dorsal spinal cord explants
